Assay [1] concerns Plasmodium falciparum. As to the kind of experiment: Antiplasmodial activity against chloroquine-sensitive Plasmodium falciparum MRC-02 in human B+ erythrocytes assessed as inhibition of schizont maturation at 0.25 ug/mL after 24 hrs by conventional parasite culture method. It is filed as functional. Particulars: MRC-02, 24 h.
In assay [2] the test system is Plasmodium falciparum. The experiment in a line: Antiplasmodial activity against chloroquine-sensitive Plasmodium falciparum MRC-02 in human B+ erythrocytes assessed as inhibition of schizont maturation after 24 hrs by conventional parasite culture method. Particulars: MRC-02, 24 h. In kind it is functional, organism-based.
The test system of assay [3] is Plasmodium falciparum. The experiment in a line: Antiplasmodial activity against chloroquine-resistant Plasmodium falciparum in human B+ erythrocytes assessed as inhibition of schizont maturation after 24 hrs by conventional parasite culture method. In kind it is functional, organism-based.

The source of these data is ChEMBL document CHEMBL1158502, “Gomphostenins: two new antimalarial compounds from the leaves of Gomphostemma niveum” (Bioorg Med Chem Lett, 2010).

Converted amounts (≈) assume the structure as drawn.

The term inhibition denotes the drop in the measured response relative to a control, in per cent. On to `CCN(CC)CCCC(C)Nc1ccnc2cc(Cl)ccc12` (stereo not given) [CHLOROQUINE], for which the inhibition at 0.25 µg/mL with Plasmodium falciparum [1] was 100%. One may read the IC50 as the concentration at which inhibition is half-maximal. For the compound `CC1=CC(=O)C[C@H]2[C@](C)(CCC3=CCOC3=O)[C@H](CO)CC[C@]12C` [GOMPHOSTENIN], the figures for the IC50 with Plasmodium falciparum [2] and in the assay on Plasmodium falciparum [3] were 38.2 µg/mL (≈ 115 µM) and 37.7 µg/mL (≈ 113 µM), respectively.

Regarding `CC(=O)OC[C@@H]1CC[C@]2(C)C(C)=CC(=O)C[C@H]2[C@]1(C)CCC1=CCOC1=O`, the figures for the IC50 with Plasmodium falciparum [2] and in the assay with Plasmodium falciparum [3] were 3.4 µg/mL (≈ 9.08 µM) and 3.2 µg/mL (≈ 8.55 µM), respectively.
